Data from patent US20210282399A1, “FUNGICIDAL COMPOSITION” (priority 2018, published 2021).
“And” between values parts separate entries of the source, which are not always exact repeats. Equal entries are not always repeated.

Assays:
Phakopsora pachyrhizi [1] = assay: Flow cytometric assay of fungicide efficacy on Phakopsora pachyrhizi urediniospores (healthy vs dead spores, metabolic activity); Wadley and Colby evaluation; assay type: cell-based; conditions: for EC50 (Mean) / EC50: based on perturbation of the metabolic activity
Description: in which E represents the expected effect, e.g. percentage of pest control, for the combination of the three active ingredient at defined doses (for example equal to x, y and z respectively), X is the effect, e.g. percentage of pest control, observed for compound (I) at a defined dose (equal to x), Y is the effect, e.g. percentage of pest control, observed for compound (II) at a defined dose (equal to y), Z is the effect, e.g. percentage of pest control, observed for compound (III) at a defined dose (equal to z). When the effect, e.g. percentage of pest control, observed for the combination is greater than the expected effect, there is a synergistic effect. The ratio of observed action (Eobs) and expected action (Eexp), i.e. Eobs/Eexp expresses the factor of interaction level (R) which may be interpreted in accordance with Table 1a below.
In the Wadley method, synergistic activity is determined from dose response curves. With this method, the efficacy of the active ingredient (“a.i.”) is determined by comparing the degree of fungal attack on treated plants with that on untreated, similarly inoculated and incubated check plants. Each a.i. is generally tested at multiple. (e.g., 6) concentrations, and dose response curves are generated. The dose response curves are used to establish the EC50 (i.e., the effective concentration of a.i. providing 50% disease control) of the individual compounds as well as of the combinations (EC50Observed). The experimentally found values of the mixture at a given weight ratio are compared with the values that would have been found were only a complementary efficacy of the components was present as follows:
ECtheo=(a+b)/[(a/ECA)+(b/ECB)]
ECtheo=(a+b+c)/[(a/ECA)+(b/ECB+(c/ECC)]
The ratio EC50 (A+B)Theo/EC50(A+B)observed expresses the factor of interaction level (R) which may be interpreted in accordance with Table 1b below.
Soybean rust, caused by Phakopsora pachyrhizi, is one of the most important foliar diseases of soybean worldwide. Seed of soybean were sown in pots in a loam-vermiculite soil mix and placed inside a growth chamber maintained at 18° C./26° C. night/day and 60 to 70% RH with 16 h of light for 3 weeks.
First leaves were harvested and placed in Petri dishes on 1% water agar. A spore suspension (1×10^5 spores/ml of water) were prepared from infected leaf samples and was sprayed on leaf pieces using an atomizer attached to an air compressor. Petri dishes containing leaf pieces were incubated inside a growth chamber maintained at 18° C./26° C. night/day and 60 to 70% RH with 16 h of light during 2-3 weeks. Urediniospores (1×10^5 spores/ml of water) were harvested from infected leaf samples and equal volumes of spore suspension and fungicide diluted in water were mixed in 96 well plate. Spores are stained by two fluorescent dyes, one which stained dead spores and a one for which intensity of staining is directly correlated to metabolic activity.
Flow cytometric analyses were performed on a CyFlow Cube 8 equipped with an autoloading station (Sysmex Partec GmbH, Gorlittz, Germany). The fluorescences were collected for 2000 to 3000 spores per well and were used to discriminate: (i) healthy spores and (ii) dead spores. The fungicide efficacies were then calculated from the percentage of healthy spores in control condition and in treated condition.
The EC50 is based the perturbation of the metabolic activity.

Phakopsora pachyrhizi [2] = assay: Field fungicide tests for Asian soybean rust on soybean, Brazil; assay type: in vivo; conditions: soybean field plots, three foliar applications; fenpropidin 75-300 g a.i./ha; FIGS. 1 and 2
Protocol: The experiments for fungicide tests for Asian soybean rust (Phakopsora pachyrhizi) were carried out at Experimental Stations in different regions of Brazil. Each plot consisted of at least 15.0 m^2 (3.0 m×5.0 m). The experimental design was a randomized block design with four replicates, using soybean varieties adapted to each region. Three applications of foliar treatments were carried out at 10 to 15 day intervals, depending on the soybean rust pressure at each site. The applications were made with backpack sprayer pressurized with CO^2 set to apply 150 L. ha-1 of spray volume and 0.460 L/min per nozzle. […] The applications of the treatments were performed when the soybean was in stages 60 (First flowers opened (sporadically in population), 72 (About 20% of pods have reached final length (15-20 mm)) and 79 (Approx. pods have reached final length (15-20 mm), seeds filling the cavity of the majority of pods) of the BBCH international scale, respectively. The results were evaluated prior to the application of the treatments, and at 7, 14 and 21, 28 and 35 days after the first application through the visual evaluation of the percentage of disease severity per plot. The harvest was evaluated at a minimum of 5.0 m^2 per plot, and the data were transformed into kg·ha-1.

Compound: CC(Cc1ccc(C(C)(C)C)cc1)CN1CCCCC1 (racemic) [Technical Fenpropidin, (±)-1-[3-[4-(1,1-dimethylethyl)phenyl]-2-methylpropyl]piperidine]
- Efficacy % (Phakopsora pachyrhizi [1]; Fenpropidin dose 0.002304 ppm): 10.17%
- Efficacy % (Phakopsora pachyrhizi [1]; Fenpropidin dose 0.01152 ppm): 18.55%
- EC50 (Mean) (Phakopsora pachyrhizi [1]; mean of Exp 1-3): >7.2 ppm
- EC50 (Phakopsora pachyrhizi [1]; single experiments Exp 1-3): >7.2 ppm
- % of efficiency, Mean (Phakopsora pachyrhizi [1]; dose 0.0004608 ppm, mean of Exp 1-3): 15.65%
- % of efficiency, Mean (Phakopsora pachyrhizi [1]; dose 0.002304 ppm, mean of Exp 1-3): 10.17%
- % of efficiency, Mean (Phakopsora pachyrhizi [1]; dose 0.01152 ppm, mean of Exp 1-3): 18.55%
- % of efficiency, Mean (Phakopsora pachyrhizi [1]; dose 0.0576 ppm, mean of Exp 1-3): 12.90%
- % of efficiency (Phakopsora pachyrhizi [1]; dose 0.0576 ppm, single experiments Exp 1-3): 10.9% and 12.4% and 15.5%
- % of efficiency, Mean (Phakopsora pachyrhizi [1]; dose 0.288 ppm, mean of Exp 1-3): 13.31%
- % of efficiency (Phakopsora pachyrhizi [1]; dose 0.288 ppm, single experiments Exp 1-3): 15.4% and 9.9% and 14.6%
- % of efficiency, Mean (Phakopsora pachyrhizi [1]; dose 1.44 ppm, mean of Exp 1-3): 16.42%
- % of efficiency, Mean (Phakopsora pachyrhizi [1]; dose 7.2 ppm, mean of Exp 1-3): 16.74%
- EC50 (in 2018) (Phakopsora pachyrhizi [1]; value in brackets, 'in 2018'): (88.916 ppm in 2018)
- effectiveness against Phakopsora pachyrhizi (Phakopsora pachyrhizi [2]): effective

Compound: Mancozeb [Formulated Mancozeb]
- Efficacy % (Phakopsora pachyrhizi [1]; Mancozeb dose 0.0128 ppm): 33.27%
- Efficacy % (Phakopsora pachyrhizi [1]; Mancozeb dose 0.064 ppm): 50.68%
- EC50 (Mean) (Phakopsora pachyrhizi [1]; mean of Exp 1-3): <>0.042 ppm
- EC50 (Phakopsora pachyrhizi [1]; single experiments Exp 1-3): <>0.037 ppm and <>0.058 ppm and <>0.032 ppm
- % of efficiency, Mean (Phakopsora pachyrhizi [1]; dose 0.00256 ppm, mean of experiments): 11.22%
- % of efficiency, Mean (Phakopsora pachyrhizi [1]; dose 0.0128 ppm, mean of experiments): 33.27%
- % of efficiency (Phakopsora pachyrhizi [1]; dose 0.0128 ppm, single experiments): 39.9% and 26.2% and 33.7%
- % of efficiency, Mean (Phakopsora pachyrhizi [1]; dose 0.064 ppm, mean of experiments): 50.88%
- % of efficiency (Phakopsora pachyrhizi [1]; dose 0.064 ppm, single experiments): 59.2% and 43.2% and 49.7%
- % of efficiency, Mean (Phakopsora pachyrhizi [1]; dose 0.32 ppm, mean of experiments): 88.10%
- % of efficiency (Phakopsora pachyrhizi [1]; dose 0.32 ppm, single experiments): 80.8% and 94.2% and 89.3%
- % of efficiency, Mean (Phakopsora pachyrhizi [1]; dose 1.6 ppm, mean of experiments): 95.20%
- % of efficiency (Phakopsora pachyrhizi [1]; dose 1.6 ppm, single experiments): 93.6% and 98.7% and 93.2%
- % of efficiency, Mean (Phakopsora pachyrhizi [1]; dose 8 ppm, mean of experiments): 94.99%
- % of efficiency (Phakopsora pachyrhizi [1]; dose 8 ppm, single experiments): 89.4% and 98.9% and 96.6%
- % of efficiency, Mean (Phakopsora pachyrhizi [1]; dose 40 ppm, mean of experiments): 96.58%
- % of efficiency (Phakopsora pachyrhizi [1]; dose 40 ppm, single experiments): 92.3% and 99.5% and 97.8%

Compound: Cn1cc(C(=O)Nc2ccccc2-c2cc(F)c(F)c(F)c2)c(C(F)F)n1 [Technical Fluxapyroxad, Fluxapyroxad]
- Efficacy % (Phakopsora pachyrhizi [1]; Fluxapyroxad dose 0.000576 ppm): 15.24%
- Efficacy % (Phakopsora pachyrhizi [1]; Fluxapyroxad dose 0.00288 ppm): 24.72%
- EC50 (Mean) (Phakopsora pachyrhizi [1]; mean of Exp 1-3): <>0.202 ppm
- EC50 (Phakopsora pachyrhizi [1]; single experiments Exp 1-3): <>0.190 ppm and <>0.214 ppm and <>0.202 ppm
- % of efficiency, Mean (Phakopsora pachyrhizi [1]; dose 0.0001152 ppm, mean of Exp 1-3): 19.26%
- % of efficiency, Mean (Phakopsora pachyrhizi [1]; dose 0.000576 ppm, mean of Exp 1-3): 15.24%
- % of efficiency, Mean (Phakopsora pachyrhizi [1]; dose 0.00288 ppm, mean of Exp 1-3): 24.72%
- % of efficiency (Phakopsora pachyrhizi [1]; dose 0.00288 ppm, single experiments Exp 1-3): 18.6% and 37.0%
- % of efficiency, Mean (Phakopsora pachyrhizi [1]; dose 0.0144 ppm, mean of Exp 1-3): 18.40%
- % of efficiency, Mean (Phakopsora pachyrhizi [1]; dose 0.072 ppm, mean of Exp 1-3): 29.12%
- % of efficiency (Phakopsora pachyrhizi [1]; dose 0.072 ppm, single experiments Exp 1-3): 28.8% and 28.6% and 29.9%
- % of efficiency, Mean (Phakopsora pachyrhizi [1]; dose 0.36 ppm, mean of Exp 1-3): 59.74%
- % of efficiency (Phakopsora pachyrhizi [1]; dose 0.36 ppm, single experiments Exp 1-3): 61.7% and 52.3% and 65.2%
- % of efficiency, Mean (Phakopsora pachyrhizi [1]; dose 1.8 ppm, mean of Exp 1-3): 80.82%
- % of efficiency (Phakopsora pachyrhizi [1]; dose 1.8 ppm, single experiments Exp 1-3): 88.5% and 83.4% and 70.6%

Compound: OC(Cc1ccccc1Cl)(Cn1cncn1)C1(Cl)CC1 (stereo not shown) [Desthio-prothiconazole, Desthio-prothioconazole]
- Efficacy % (Phakopsora pachyrhizi [1]; Desthio-prothioconazole dose 0.004544 ppm): 38.49%
- Efficacy % (Phakopsora pachyrhizi [1]; Desthio-prothioconazole dose 0.02272 ppm): 49.44%
